Source: patent US20260083701A1, “COMPOSITIONS, FORMULATIONS, AND METHODS FOR TREATMENT OF INFLAMMATORY CONDITIONS” (Oddity Labs, LLC, priority 2023, published 2026)

Columns and labels:
IL-4 = experiment: Functional Th2-blocking activity: IL-4 expression in primary human Th2 cells (intracellular flow cytometry); assay type: cell-based; details: primary human CD4+ Th2 cells; for % Normalized Reduction of Cytokine Expression From Baseline in CD4+ T Cells IL-4: normalized against vehicle control (water), 3 days co-culture, PMA/ionomycin 6 hours; for Expression of Cytokine following Stimulation (% X Positive among CD4+ T cells) IL-4: 3 days co-culture with compound, PMA/ionomycin stimulation 6 hours
Excerpt: (§1) To produce T helper 2 (Th2) cells, peripheral blood mononuclear cells (PBMCs) were harvested from healthy donor leukopaks using Ficoll gradients. Naive CD4+ T cells were further isolated, then activated using TransAct or Dynabeads (depending on the donor). CD4+ T cells were activated for two days in the presence of low dose IL-2 (30 IU/mL) in X-VIVO-15 media containing 5% human AB serum (activation cycle). On the second day, the media was exchanged and supplemented with interleukin 4 (IL-4) (20 ng/mL), anti-IFN-gamma antibody (1 μg/mL), and interleukin 2 (IL-2) (rest cycle). The cells were cultured for an additional five days then evaluated for Prostaglandin D2 receptor 2 (DP2 or CRTH2) expression and IL-4 and interleukin 13 (IL-13) expression following phorbol myristate acetate (PMA)/ionomycin stimulation. If the expression of CRTH2 was >50%, the cells were frozen and used in Th2 IL-4/IL-13 bioactivity assays. If the expression of CRTH2 <50%, then the cells were restimulated using TransAct (or Dynabeads) and maintained on similar cycles of activation (2 days) and rest (5 days), until the expression of CRTH2 exceeded 50%. Typically, no more than 4 cycles are needed before the Th2 cells may be harvested and frozen.
(§2) For testing the ability of a compound or salt of the present disclosure to reduce the expression of IL-4 and IL-13 was tested in primary human Th2 cells, the abovementioned cells were thawed, then cultured for one day in IL-2 containing media. The Th2 cells were treated with compounds added at varying concentrations for three days, after which, the cells were washed, and stimulated with PMA/ionomycin for 6 hrs prior to readabout via intracellular flow cytometry.
(§3) The ability of a compound or salt of the present disclosure to reduce the expression of IL-4 and IL-13 was tested in primary human Th2 cells. Naive, primary human CD4+ T cells were isolated from healthy donors and differentiated into Th2 cells using a combination of IL-4 cytokine and anti-IFN-gamma antibody, based on a modified protocol from Scott et al (Activation of Th2 cells downregulates CRTh2 through an NFAT1 mediated mechanism. PLoS One. 2018 Jul. 3; 13(7):e0199156). Th2 cells were CRTH2+ and expressed IL-4 and IL-13 following PMA/ionomycin stimulation. Prior to PMA/ionomycin stimulation, Th2 cells were co-cultured with a compound or salt of the present disclosure for 3 days and then stimulated for 6 hours. Intracellular flow cytometry was performed to investigate the expression of IL-4 and IL-13 among stimulated CD4+ Th2 cells. The compound or salt was evaluated across a 2-log concentration range. Th2 cells were cultured in X-VIVO-15 media with human AB serum and supplemented with low dose IL-2 (30 IU/mL). The antibody panel that was used is listed below. All antibodies were obtained from Biolegend.
(§4) Description of Calculation for: (1) Expression of Cytokine following Stimulation (% X Positive among CD4+ T cells), and (2) % Normalized Reduction of Cytokine Expression From Baseline in CD4+ T Cells
(§5) The expression of IL-4 and IL-13 was measured based on positive gated fractions among CD4+ Th2 cells. The number is expressed as a positive percentage, determined based on the fluorescence-minus-one (FMO) control. The max percent is 100%. The normalized reduction value uses the vehicle control (water) to normalize against using the following percent change formula. (Cmpd: compound)

IL-4 receptor signaling = experiment: IL-4 signaling inhibition in HEK-Blue IL-4/IL-13 cells; assay type: cell-based, human; details: HEK-Blue IL-4/IL-13 cells stimulated with 1.25 ng/mL IL-4, co-culture with varying concentrations for 24 hours
Experimental: HEK-Blue IL-4/IL-13 cells are used to evaluate IL-4/IL-4R-alpha binding. HEK-Blue IL-4/IL-13 have been engineered to produce secreted alkaline phosphatase (SEAP) when exposed to IL-4 or IL-13 and have been previously used to identify IL-4 and IL-4R inhibitors. Compounds are tested with these cells at various dosages to evaluate dose dependent changes in IL-4/IL-4R-alpha binding inhibition. Full EC50 curves are generated for Tier1 compounds.
In the experiment, engineered HEK-Blue™ IL-4/IL-13 cells were stimulated with a dose of 1.25 ng/mL of IL-4 and then subjected to co-culture with varying concentrations of the compounds for a period of 24 hours. […] The provided data represent the mean±standard deviation of six technical replicates carried out across two experimental replicates.

IL-13 = experiment: Functional Th2-blocking activity: IL-13 expression in primary human Th2 cells (intracellular flow cytometry); assay type: cell-based; details: for Expression of Cytokine following Stimulation (% X Positive among CD4+ T cells) IL-13: 3 days co-culture with compound, PMA/ionomycin stimulation 6 hours; for % Normalized Reduction of Cytokine Expression From Baseline in CD4+ T Cells IL-13: normalized against vehicle control (water), 3 days co-culture, PMA/ionomycin 6 hours
Excerpt: as §1, §2, §3, §4, §5

Row | Compound | % Normalized Reduction of Cytokine Expression From Baseline in CD4+ T Cells IL-4 (IL-4) | Expression of Cytokine following Stimulation (% X Positive among CD4+ T cells) IL-4 (IL-4) | IL-4 signaling inhibition (IL-4 receptor signaling) | Expression of Cytokine following Stimulation (% X Positive among CD4+ T cells) IL-13 (IL-13) | % Normalized Reduction of Cytokine Expression From Baseline in CD4+ T Cells IL-13 (IL-13)
1 | Nc1c(C(=O)Nc2ccc(Cl)c(Cl)c2)c2ccccn2c1C(=O)c1cccc([N+](=O)[O-])c1 [Compound I-3, 2-amino-N-(3,4-dichlorophenyl)-3-(3-nitrobenzoyl)indolizine-1-carboxamide] | B (B represents 15% to less than 20%) | B (B represents 30% to less than 35%) | prominent IL-4 signaling inhibition | C (C represents 14% to less than 18%) | C (C represents 40% to less than 50%)
2 | CN1c2c(nc(N)[nH]c2=O)NCC1CNc1ccc(C(=O)NC(CCC(=O)O)C(=O)O)cc1.[Ca+2] (stereo not shown) [VI-4, Levomefolate calcium, reference compound] | B (B represents 15% to less than 20%) | B (B represents 30% to less than 35%) | – | C (C represents 14% to less than 18%) | B (B represents 30% to less than 40%)
3 | Cc1ccc(C)n1-c1ccsc1C(=O)NC1CCCC1 [VI-5, N-cyclopenty1-3-(2,5-dimethy1-1H-pyrrol-1-yl)thiophene-2-carboxamide] | B (B represents 15% to less than 20%) | B (B represents 30% to less than 35%) | – | C (C represents 14% to less than 18%) | B (B represents 30% to less than 40%)
4 | Cn1nc(C(=O)NC(CCC(=O)O)C(=O)O)c2ccccc2c1=O (stereo not shown) [VI-6, 2-[(3-methyl-4-oxo-3,4-dihydrophthalazin-1-yl)formamido]pentanedioic acid] | A (A represents 0% to less than 15%) | C (C represents 35% to less than 40%) | – | C (C represents 14% to less than 18%) | B (B represents 30% to less than 40%)
5 | CC1=NN(c2cccc(Cl)c2)C(=O)/C1=C\Nc1cccc2c1C(=O)c1ccccc1C2=O [VI-7, 1-({[1-(3-chlorophenyl)-3-methyl-5-oxo-1,5-dihydro-4H-pyrazol-4-ylidene]methyl}amino)anthra-9,10-quinone] | D (D represents 25% or greater) | B (B represents 30% to less than 35%) | – | C (C represents 14% to less than 18%) | B (B represents 30% to less than 40%)
6 | Cc1ccc(C)n1-c1ccsc1C(=O)N1CCOC(c2ccccc2)C1 (stereo not shown) [VI-8, 4-[3-(2,5-dimethyl-1H-pyrrol-1-yl)thiophene-2-carbonyl]-2-phenylmorpholine] | A (A represents 0% to less than 15%) | C (C represents 35% to less than 40%) | – | C (C represents 14% to less than 18%) | C (C represents 40% to less than 50%)
7 | O=C(c1ccc(F)cc1F)C1(O)CCN(Cc2ccc3cnccc3c2)CC1 [VI-9, 4-(2,4-difluorobenzoyl)-1-[(isoquinolin-6-yl)methyl]piperidin-4-ol] | D (D represents 25% or greater) | A (A represents 0% to less than 30%) | – | C (C represents 14% to less than 18%) | C (C represents 40% to less than 50%)
8 | Cc1ccc(CCNC(=O)c2ccc3c(=O)n(-c4ccc(C)cc4)c(=O)[nH]c3c2)cc1 [VI-10, 3-(4-methylpheny1)-N-[2-(4-methylphenyl)ethyl]-2,4-dioxo-1,2,3,4-tetrahydroquinazoline-7-carboxamide] | C (C represents 20% to less than 25%) | B (B represents 30% to less than 35%) | – | C (C represents 14% to less than 18%) | B (B represents 30% to less than 40%)
9 | O=C(N/N=C/c1cccc(OCc2ccccc2)c1)c1cc2ccccc2cc1O [VI-11, N′-[3-(benzyloxy)benzylidene]-3-hydroxy-2-naphthohydrazide] | A (A represents 0% to less than 15%) | D (D represents 40% or greater) | – | D (D represents 18% or greater) | A (A represents 0% to less than 30%)
10 | COc1ccc(-c2cc(=O)c3c(O)cc(O[C@@H]4O[C@H](CO)[C@@H](O)[C@H](O)[C@H]4O)cc3o2)cc1O [VI-12, Diosmetin-7-O-beta-D-glucopyranoside] | D (D represents 25% or greater) | A (A represents 0% to less than 30%) | – | A (A represents 0% to less than 10%) | D (D represents 50% or greater)
11 | O=C(Oc1ccc(OC(=O)c2ccc3c(c2)C(=O)OC3=O)cc1)c1ccc2c(c1)C(=O)OC2=O [VI-13, 4-(1,3-dioxo-1,3-dihydro-2-benzofuran-5-carbonyloxy)phenyl 1,3-dioxo-1,3-dihydro-2-benzofuran-5-carboxylate] | C (C represents 20% to less than 25%) | B (B represents 30% to less than 35%) | – | C (C represents 14% to less than 18%) | B (B represents 30% to less than 40%)
12 | O=C1Cc2cc(-c3csc(Cc4ccc(F)cc4)n3)cc3c2N1CCC3 [VI-14, 8-(2-(4-fluorobenzyl)thiazol-4-yl)-5,6-dihydro-4H-pyrrolo[3,2,1-ij]quinolin-2(1H)-one] | C (C represents 20% to less than 25%) | B (B represents 30% to less than 35%) | – | B (B represents 10% to less than 14%) | D (D represents 50% or greater)
